Source: patent publication US9902728B2, “Pyrrolo and pyrazolopyrimidines as ubiquitin-specific protease 7 inhibitors” (Forma Therapeutics, Inc., priority 2014, dated 2018)

target: T1, USP7 (Homo sapiens, UniProt Q93009); assay: USP7 Assay A (Ubitquin-Rhodamine 110 Assay); type: biochemical; details: USP7 activity in USP7 assay A and B (table does not say which assay per compound); read-out: USP7_IC50
T1 construct: USP7, construct USP7 (208-1102) 6*His, Viva Biotech; 6xHis (C); purchased Viva Biotech
Method in brief: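 Enzyme and compound sat together for 30 min before Ub-Rh110 was added, in buffer of 20 mM Tris-HCl (pH 8.0), 1 mM GSH, 0.03% BGG and 0.01% Triton X-100.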

T1 sequence (Q93009 208-1102): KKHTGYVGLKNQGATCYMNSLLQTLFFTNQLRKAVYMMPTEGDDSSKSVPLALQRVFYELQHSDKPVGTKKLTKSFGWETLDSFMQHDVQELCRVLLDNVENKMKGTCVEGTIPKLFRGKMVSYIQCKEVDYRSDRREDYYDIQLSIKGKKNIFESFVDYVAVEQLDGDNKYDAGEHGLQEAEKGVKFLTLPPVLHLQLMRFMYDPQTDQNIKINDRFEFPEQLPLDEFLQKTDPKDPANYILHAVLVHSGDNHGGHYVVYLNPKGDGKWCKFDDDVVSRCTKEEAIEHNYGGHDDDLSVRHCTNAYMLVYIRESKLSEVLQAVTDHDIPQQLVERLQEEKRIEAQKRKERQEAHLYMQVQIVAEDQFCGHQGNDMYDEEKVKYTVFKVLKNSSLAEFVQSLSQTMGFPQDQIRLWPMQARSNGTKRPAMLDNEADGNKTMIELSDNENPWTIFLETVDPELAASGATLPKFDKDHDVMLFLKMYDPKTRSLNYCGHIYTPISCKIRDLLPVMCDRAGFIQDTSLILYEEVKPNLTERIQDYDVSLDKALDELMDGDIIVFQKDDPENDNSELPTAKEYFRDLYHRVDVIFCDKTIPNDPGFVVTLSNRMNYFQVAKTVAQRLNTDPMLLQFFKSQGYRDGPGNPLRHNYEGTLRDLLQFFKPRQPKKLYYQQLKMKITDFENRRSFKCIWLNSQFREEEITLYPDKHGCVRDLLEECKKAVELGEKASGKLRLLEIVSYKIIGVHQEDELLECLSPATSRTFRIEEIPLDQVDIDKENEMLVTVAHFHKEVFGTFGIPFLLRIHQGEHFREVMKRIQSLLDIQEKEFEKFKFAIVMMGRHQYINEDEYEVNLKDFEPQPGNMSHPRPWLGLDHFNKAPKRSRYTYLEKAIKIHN

SMILES	IC50
O=C(C1CC(Nc2cccnc2)C1)N1CCC(O)(Cn2cnc3c(cnn3-c3ccc(F)cc3)c2=O)CC1 (stereo not shown) [Compound I-1030]	200 to 1000 nM
O=C(C1CC(Nc2cccnc2)C1)N1CCC(O)(Cn2cnc3c(cnn3-c3ccc(F)cc3)c2=O)CC1 (stereo not shown) [Compound I-1031]	200 to 1000 nM
O=C(C1CC(Nc2ccc(F)cn2)C1)N1CCC(O)(Cn2cnc3c(cnn3-c3ccc(F)cc3)c2=O)CC1 (stereo not shown) [Compound I-1032]	200 to 1000 nM
O=C(C1CC(Nc2ccc(F)cn2)C1)N1CCC(O)(Cn2cnc3c(cnn3-c3ccc(F)cc3)c2=O)CC1 (stereo not shown) [Compound I-1033]	1000 to 10000 nM
O=C(C1CC(Nc2ccccn2)C1)N1CCC(O)(Cn2cnc3c(cnn3-c3ccc(F)cc3)c2=O)CC1 (stereo not shown) [Compound I-1034]	1000 to 10000 nM
O=C(C1CC(Nc2ccccn2)C1)N1CCC(O)(Cn2cnc3c(cnn3-c3ccc(F)cc3)c2=O)CC1 (stereo not shown) [Compound I-1035]	200 to 1000 nM
O=C(C[C@H](C(F)F)n1ccc(F)n1)N1CCC(O)(Cn2cnc3c(cnn3-c3ccc(C(F)(F)F)cc3)c2=O)CC1 [Compound I-1036]	< 200 nM
O=C(C[C@@H](C(F)F)n1ccc(F)n1)N1CCC(O)(Cn2cnc3c(cnn3-c3ccc(C(F)(F)F)cc3)c2=O)CC1 [Compound I-1037]	1000 to 10000 nM
O=C(C1CCC(Oc2ccccn2)CC1)N1CCC(O)(Cn2cnc3c(ccn3-c3ccc(F)cc3)c2=O)CC1 (stereo not shown) [Compound I-1038]	< 200 nM
O=c1c2cnn(-c3ccccc3)c2ncn1CC1(O)CCN(C(=O)[C@H]2CC[C@H](Nc3cccnc3F)CC2)CC1 [Compound I-1039b, Anti-5-((1-(4-((2-fluoropyridin-3-yl)amino)cyclohexane-1-carbonyl)-4-hydroxypiperidin-4-yl)methyl)-1-phenyl-1,5-dihydro-4H-pyrazolo[3,4-d]pyrimidin-4-one]	< 200 nM
Cn1ccc(NC2CCC(C(=O)N3CCC(O)(Cn4cnc5c(ccn5-c5ccc(F)cc5)c4=O)CC3)CC2)n1 (stereo not shown) [Compound I-1040]	1000 to 10000 nM
Cn1ccc(NC2CCC(C(=O)N3CCC(O)(Cn4cnc5c(ccn5-c5ccc(F)cc5)c4=O)CC3)CC2)n1 (stereo not shown) [Compound I-1041]	200 to 1000 nM
CC1(C(=O)N2CCC(O)(Cn3cnc4c(cnn4-c4cccc(-n5ccc(F)n5)c4)c3=O)CC2)CC1 [Compound I-1042]	200 to 1000 nM
CC1(C(=O)N2CCC(O)(Cn3cnc4c(cnn4-c4ccc(-n5cc(C(F)(F)F)cn5)cc4)c3=O)CC2)CC1 [Compound I-1043]	200 to 1000 nM
CC1(C(=O)N2CCC(O)(Cn3cnc4c(cnn4-c4ccc(-n5cc(Cl)cn5)cc4)c3=O)CC2)CC1 [Compound I-1045]	< 200 nM
CC1(C(=O)N2CCC(O)(Cn3cnc4c(cnn4-c4cccc(OCC5CC(F)(F)C5)c4)c3=O)CC2)CC1 [Compound I-1046, 1-(3-((3,3-difluorocyclobutyl)methoxy)phenyl)-5-((4-hydroxy-1-(1-methylcyclopropane-1-carbonyl)piperidin-4-yl)methyl)-1,5-dihydro-4H-pyrazolo[3,4-d]pyrimidin-4-one]	200 to 1000 nM
CC1(C(=O)N2CCC(O)(Cn3cnc4c(cnn4-c4cccc(OC5CCC(F)(F)CC5)c4)c3=O)CC2)CC1 [Compound I-1047]	< 200 nM
C[C@@H](CC(=O)N1CCC(O)(Cn2cnc3c(cnn3-c3ccc(N4CC[C@@](C)(O)C4)cc3)c2=O)CC1)n1cccn1 [Compound I-1052]	200 to 1000 nM
Cn1ccc(OC2CCC(C(=O)N3CCC(O)(Cn4cnc5c(ccn5-c5ccc(F)cc5)c4=O)CC3)CC2)n1 (stereo not shown) [Compound I-1067]	200 to 1000 nM
O=C(C1CCC(NC2CC2)CC1)N1CCC(O)(Cn2cnc3c(cnn3-c3ccc(F)cc3)c2=O)CC1 (stereo not shown) [Compound I-1072]	1000 to 10000 nM
O=C(NC1CCC(C(=O)N2CCC(O)(Cn3cnc4c(cnn4-c4ccc(F)cc4)c3=O)CC2)CC1)C1CC1 (stereo not shown) [Compound I-1075]	1000 to 10000 nM
Cc1ncc(C(=O)N2CCC(O)(Cn3cnc4c(ccn4-c4ccc(F)cc4)c3=O)CC2)o1 [Compound I-1077]	200 to 1000 nM
Cn1cc(C(=O)N2CCC(O)(Cn3cnc4c(ccn4-c4ccc(F)cc4)c3=O)CC2)cn1 [Compound I-1078]	200 to 1000 nM
O=C(c1cnn(C2CC2)c1)N1CCC(O)(Cn2cnc3c(ccn3-c3ccc(F)cc3)c2=O)CC1 [Compound I-1079]	200 to 1000 nM
CN1CCN(c2ncc(C(=O)N3CCC(O)(Cn4cnc5c(cnn5-c5ccc(Cl)cc5)c4=O)CC3)o2)CC1 [Compound I-1085]	1000 to 10000 nM

SMILES	IC50
O=C(c1cnc(Oc2ccccn2)o1)N1CCC(O)(Cn2cnc3c(cnn3-c3ccc(Cl)cc3)c2=O)CC1 [Compound I-1086]	1000 to 10000 nM
O=C(c1ccc(-n2cnnn2)cc1)N1CCC(O)(Cn2cnc3c(cnn3-c3ccc(Cl)cc3)c2=O)CC1 [Compound I-1087]	200 to 1000 nM
O=C(c1ccc(-n2ccnc2)cc1)N1CCC(O)(Cn2cnc3c(cnn3-c3ccc(Cl)cc3)c2=O)CC1 [Compound I-1088]	200 to 1000 nM
Cc1nnnn1-c1ccc(C(=O)N2CCC(O)(Cn3cnc4c(cnn4-c4ccc(Cl)cc4)c3=O)CC2)cc1 [Compound I-1089]	200 to 1000 nM
O=C(c1ccc(-n2cncn2)cc1)N1CCC(O)(Cn2cnc3c(cnn3-c3ccc(Cl)cc3)c2=O)CC1 [Compound I-1090]	200 to 1000 nM
O=C(c1nnc(C2CC2)o1)N1CCC(O)(Cn2cnc3c(cnn3-c3ccc(Cl)cc3)c2=O)CC1 [Compound I-1091]	1000 to 10000 nM
O=C(c1cn(C2CC2)cn1)N1CCC(O)(Cn2cnc3c(cnn3-c3ccc(Cl)cc3)c2=O)CC1 [Compound I-1092]	1000 to 10000 nM
O=C(c1ccn(C2CC2)n1)N1CCC(O)(Cn2cnc3c(cnn3-c3ccc(Cl)cc3)c2=O)CC1 [Compound I-1093]	1000 to 10000 nM
O=C(c1cnn(C2CC2)c1)N1CCC(O)(Cn2cnc3c(cnn3-c3ccc(Cl)cc3)c2=O)CC1 [Compound I-1095]	200 to 1000 nM
CN1CCC(Oc2ccc(C(=O)N3CCC(O)(Cn4cnc5c(cnn5-c5ccc(Cl)cc5)c4=O)CC3)cc2)CC1 [Compound I-1096]	1000 to 10000 nM
Cc1cnc(-c2ccc(C(=O)N3CCC(O)(Cn4cnc5c(cnn5-c5ccc(Cl)cc5)c4=O)CC3)cc2)n1C [Compound I-1099]	1000 to 10000 nM
Cc1ncc(-c2ccc(C(=O)N3CCC(O)(Cn4cnc5c(cnn5-c5ccc(Cl)cc5)c4=O)CC3)cc2)n1C [Compound I-1101]	1000 to 10000 nM
O=C(c1ocnc1Cc1ccccc1)N1CCC(O)(Cn2cnc3c(cnn3-c3ccccc3)c2=O)CC1 [Compound I-1108]	> 10000 nM
Cc1snc(Cc2ccccc2)c1C(=O)N1CCC(O)(Cn2cnc3c(cnn3-c3ccc(F)cc3)c2=O)CC1 [Compound I-1110]	< 200 nM
O=C(C1CCC(OC(F)F)CC1)N1CCC(O)(Cn2cnc3c(cnn3-c3ccc(F)cc3)c2=O)CC1 (stereo not shown) [Compound I-1112]	1000 to 10000 nM
O=C(C1CCC(Oc2cnccn2)CC1)N1CCC(O)(Cn2cnc3c(cnn3-c3ccc(F)cc3)c2=O)CC1 (stereo not shown) [Compound I-1113]	< 200 nM
Cn1nccc1OC1CCC(C(=O)N2CCC(O)(Cn3cnc4c(cnn4-c4ccc(F)cc4)c3=O)CC2)CC1 (stereo not shown) [Compound I-1114]	1000 to 10000 nM
CC1(COc2ccc(-n3ncc4c(=O)n(CC5(O)CCN(C(=O)C6(C)CC6)CC5)cnc43)cc2)COC1 [Compound I-1118]	< 200 nM
CC1(C(=O)N2CCC(O)(Cn3cnc4c(cnn4-c4ccc(OCC5(F)CCC5)cc4)c3=O)CC2)CC1 [Compound I-1119]	< 200 nM
O=C(C1CCC(Oc2ccccn2)CC1)N1CCC(O)(Cn2cnc3c(ccn3-c3ccc(F)cc3)c2=O)CC1 (stereo not shown) [Compound I-1124]	< 200 nM
O=C(C[C@H](C(F)F)n1ccc(F)n1)N1CCC(O)(Cn2cnc3c(ccn3-c3ccc(F)cc3)c2=O)CC1 [Compound I-1125]	200 to 1000 nM
O=C(C[C@@H](C(F)F)n1ccc(F)n1)N1CCC(O)(Cn2cnc3c(ccn3-c3ccc(F)cc3)c2=O)CC1 [Compound I-1126]	< 200 nM
O=C(C[C@H](C(F)F)n1cccn1)N1CCC(O)(Cn2cnc3c(cnn3-c3ccc(Cl)cc3)c2=O)CC1 [Compound I-1131]	1000 to 10000 nM
O=C(C[C@@H](C(F)F)n1cccn1)N1CCC(O)(Cn2cnc3c(cnn3-c3ccc(Cl)cc3)c2=O)CC1 [Compound I-1132]	200 to 1000 nM

same assay, conditions: USP7 assay A and B (table does not say which assay per compound); read-out: USP7_IC50

SMILES	IC50
Cc1ccc(-n2ncc3c(=O)n(CC4(O)CCN(C(=O)c5ccc(OC(F)F)cc5)CC4)cnc32)cc1 [Compound I-1058]	200 to 1000 nM
Cc1ccc(-n2ncc3c(=O)n(CC4(O)CCN(C(=O)C[C@H](C(F)F)n5cccn5)CC4)cnc32)cc1 [Compound I-1060]	< 200 nM
Cc1ccc(-n2ncc3c(=O)n(CC4(O)CCN(C(=O)C[C@@H](C(F)F)n5cccn5)CC4)cnc32)cc1 [Compound I-1061]	1000 to 10000 nM
Cc1ccc(-n2ncc3c(=O)n(CC4(O)CCN(C(=O)c5ccc(Oc6ncccn6)cc5)CC4)cnc32)cc1 [Compound I-1063]	200 to 1000 nM
O=C(C1CC1)N1CCC(O)(Cn2cnc3c(cnn3-c3ccc(N4CCCc5ccccc54)cc3)c2=O)CC1 [Compound I-1082]	1000 to 10000 nM
O=C(CC(c1ccccc1)C(F)F)N1CCC(O)(Cn2cnc3c(cnn3-c3ccccc3)c2=O)CC1 (stereo not shown) [Compound I-1102]	< 200 nM
O=C(C[C@@H](c1ccccc1)C(F)F)N1CCC(O)(Cn2cnc3c(cnn3-c3ccccc3)c2=O)CC1 [Compound I-1103]	< 200 nM
O=C(C[C@H](c1ccccc1)C(F)F)N1CCC(O)(Cn2cnc3c(cnn3-c3ccccc3)c2=O)CC1 [Compound I-1104]	1000 to 10000 nM
O=C(c1cccc(CN2CCCC2)c1)N1CCC(O)(Cn2cnc3c(cnn3-c3ccc(Cl)cc3)c2=O)CC1 [Compound I-1127]	1000 to 10000 nM
O=C(c1ccc(-n2ccnn2)cc1)N1CCC(O)(Cn2cnc3c(cnn3-c3ccc(Cl)cc3)c2=O)CC1 [Compound I-1128]	200 to 1000 nM
O=C(c1ccc(-n2nccn2)cc1)N1CCC(O)(Cn2cnc3c(cnn3-c3ccc(Cl)cc3)c2=O)CC1 [Compound I-1129]	1000 to 10000 nM
O=C(c1cnc(C2CC2)o1)N1CCC(O)(Cn2cnc3c(cnn3-c3ccc(Cl)cc3)c2=O)CC1 [Compound I-1130]	200 to 1000 nM
